From patent US20240262795A1, “PYRAZINE COMPOUNDS AS INHIBITORS OF FLT3” (Biomea Fusion, Inc., priority 2021, published 2024)
Like-named read-outs stand apart in the source and are kept apart here.

Experiments:
K-562 = experiment: Proliferation inhibition, CellTiter-Glo, K-562; format: cell-based, human; details: for IC50: Homo sapiens
Outline: (§1)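 About 10,000 cells per well in RPMI-1640 with 10% FBS. Compounds added 2 h after seeding at eight concentrations in duplicate (0.2% DMSO as 100% proliferation), then incubated ~96 h at 37° C, 5% CO2. ATP measured by CellTiter-Glo luminescence; IC50 from four-parameter logistic fit.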

FLT3-ITD = target: T1, FLT3-ITD (Homo sapiens, UniProt P36888, DUP595-601); experiment: FLT3-ITD Lance Ultra TR-FRET kinase assay; format: biochemical
T1 construct: purchased Signalchem F-12-12CG-10
T1 sequence (P36888 with tags, fused parts or gaps DUP595-601 limits assumed): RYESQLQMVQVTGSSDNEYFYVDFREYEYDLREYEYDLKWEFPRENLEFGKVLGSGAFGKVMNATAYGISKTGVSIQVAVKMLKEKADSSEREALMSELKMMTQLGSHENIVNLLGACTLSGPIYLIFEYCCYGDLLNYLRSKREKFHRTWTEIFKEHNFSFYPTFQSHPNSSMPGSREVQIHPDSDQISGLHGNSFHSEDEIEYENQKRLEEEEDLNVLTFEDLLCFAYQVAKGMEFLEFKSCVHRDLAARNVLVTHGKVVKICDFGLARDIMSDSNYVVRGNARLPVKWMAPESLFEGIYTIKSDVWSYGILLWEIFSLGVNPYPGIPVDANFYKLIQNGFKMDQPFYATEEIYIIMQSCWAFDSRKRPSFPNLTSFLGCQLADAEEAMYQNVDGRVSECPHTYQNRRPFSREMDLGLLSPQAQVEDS
Excerpt: (§2) High throughput 384-well Lance Ultra TR-FRET based kinase assays were established for the WT FLT3 and FLT3-ITD enzymes and employed a ULight-labeled peptide […] and FLT3 proteins labelled with Eu-conjugated antibody […] (WuXi Aptec). The principle of TR-FRET is based on transfer of energy between a donor and acceptor fluorophore that results when the fluorophores are within close proximity (˜100 Å) of each other. Recombinant WT FLT3 (#PR4666C, M.W. 48.6 kDa) was purchased from Invitrogen and FLT3-ITD (FLT3-ITD-W51, #F-12-12CG-10, M.W. 76 kDa) was purchased from Signalchem. Optimal assay conditions for the WT FLT3 enzyme assay were as follows: 0.5 nM FLT3 protein, 50 nM ULight-JAK-1 (Tyr1023) substrate peptide (PerkinElmer #TRF0121), 100 μM ATP, 60 min reaction time. Optimal assay conditions for the FLT3-ITD enzyme assay were as follows: 0.0625 nM FLT3-ITD protein, 50 nM ULight-JAK-1 (Tyr1023) substrate peptide, 50 μM ATP, 90 min reaction time. Briefly, 11 dose 3× serial dilutions were prepared for the test compounds and the reference compound and 100 nanoliters transferred to appropriate wells of 384-well assay plates. Five microliters of 2× enzyme/peptide were added into assay wells, assay plates centrifuged at 1000 rpm for about 30 seconds, sealed with sealing film and incubated for 30 min at 23° C. Assay buffer comprised 50 mM HEPES (pH 7.5), 1 mM EDTA, 0.01% Brij-35, 10 mM MgCl2 and 2 mM DTT. Next 5 μl of a 2× ATP mixture were added into the assay wells and the plates centrifuged at 1000 rpm about 30 seconds, sealed with sealing film and incubated for 23° C. for appropriate duration. Following assay incubation (30 min for WT FLT3 and 60 min for FLT3-ITD) 10 μl 2× Detection Mixture (Eu-W1024 Anti-phosphotyrosine (PT66) 2 nM and EDTA 10 mM) was added to assay wells, assay plates centrifuge at 1000 rpm about 1 minutes, sealed with sealing film and incubated at 23° C. for 60 minutes. Assay plates were read on a Perkin Elmer Envision reader at two wavelengths (665/615) and the ratio of […] calculated.
(§3) Data was expressed as % of inhibition relative to the vehicle control and calculated as follows:
(§4) Results were analyzed by XLFIT5 as % inhibition vs. log [compound concentration] and IC50 values were calculated by non-linear regression using four parameter-logistic equation. Fit=(A+((B−A)/(1+((C/x)^D)))). Res=(y−fit).

MV-4-11 = experiment: Proliferation inhibition, CellTiter-Glo, MV-4-11; format: cell-based, human; details: for IC50: Homo sapiens
Outline: as §1

WT FLT3 = target: T2, WT FLT3 (Homo sapiens, UniProt P36888); experiment: WT FLT3 Lance Ultra TR-FRET kinase assay; format: biochemical
T2 construct: purchased Invitrogen PR4666C
T2 sequence (P36888 564-993 limits assumed): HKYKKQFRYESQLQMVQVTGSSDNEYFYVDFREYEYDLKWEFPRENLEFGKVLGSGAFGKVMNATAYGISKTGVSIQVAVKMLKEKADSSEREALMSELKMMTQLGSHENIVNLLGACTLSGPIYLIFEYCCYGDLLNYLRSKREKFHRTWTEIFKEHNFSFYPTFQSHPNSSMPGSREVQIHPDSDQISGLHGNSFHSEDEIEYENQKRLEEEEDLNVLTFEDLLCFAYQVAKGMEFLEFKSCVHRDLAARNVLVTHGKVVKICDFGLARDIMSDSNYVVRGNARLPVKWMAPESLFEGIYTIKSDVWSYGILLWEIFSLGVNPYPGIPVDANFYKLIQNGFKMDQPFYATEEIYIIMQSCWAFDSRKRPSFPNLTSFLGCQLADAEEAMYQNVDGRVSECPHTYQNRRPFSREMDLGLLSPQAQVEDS
Excerpt: as §2, §3, §4

MOLM-13 = experiment: Proliferation inhibition, CellTiter-Glo, MOLM-13; format: cell-based, human; details: for IC50: Homo sapiens, MOLM-13 cells
Outline: as §1

[1] = K562, 96 h, K-562 cells, IC50 (4 days), CellTiter-Glo, read-out: K-562 IC50
[2] = MV4-11, 96 h, MV-4:11 cells, IC50 (4 days), CellTiter-Glo, read-out: MV-4:11 IC50
[3] = 96 h, IC50 (4 days), CellTiter-Glo, read-out: MOLM-13 IC50

IC50 (K-562; [1]) | IC50 (FLT3-ITD) | IC50 (MV-4-11; [2]) | IC50 (WT FLT3) | IC50 (MOLM-13; [3]) | IC50 (K-562; K562 cells, read-out: IC50 in K562 cells) | IC50 (MV-4-11; MV4-11 cells, read-out: IC50 in MV4-11 cells) | IC50 (MOLM-13; read-out: IC50 in MOLM-13 cells) | Structure (SMILES) | Ymax in K562 cells (K-562; K562 cells) | Ymax in MV4-11 cells (MV-4-11; MV4-11 cells) | Ymax in MOLM-13 cells (MOLM-13)
> 500 nM | 0.201 to 0.5 nM | 10 to 100 nM | 0.501 to 1 nM | 1 to 10 nM |  |  |  | C#Cc1nc(C(N)=O)c(Nc2cccc(CCNC(=O)CN(C)C(=O)/C=C/CN(C)C)c2)nc1N(C)C(C)C [Compound 327, (E)-3-((3-(2-(2-(4-(dimethylamino)-N-methylbut-2-enamido)acetamido)ethyl)phenyl)amino)-6-ethynyl-5-(isopropyl (methyl)amino) pyrazine-2-carboxamide] |  |  | 
> 500 nM | > 1 nM | 1 to 10 nM | 0.501 to 1 nM | 1 to 10 nM |  |  |  | CCc1nc(C(N)=O)c(Nc2cccc([C@@H](C)CNC(=O)CN(C)C(=O)/C=C/CN(C)C)c2)nc1C [Compound 321, (R,E)-3-((3-(1-(2-(4-(dimethylamino)-N-methylbut-2-enamido)acetamido)propan-2-yl)phenyl)amino)-6-ethyl-5-methylpyrazine-2-carboxamide] |  |  | 
> 500 nM | > 1 nM | 1 to 10 nM | > 1 nM | 10 to 100 nM |  |  |  | CCc1nc(Nc2cccc([C@H](C)CNC(=O)CN(C)C(=O)/C=C/CN3CCC3)c2)c(C(N)=O)nc1CC [Compound 519, (S,E)-3-((3-(1-(2-(4-(azetidin-1-yl)-N-methylbut-2-enamido)acetamido)propan-2-yl)phenyl)amino)-5,6-diethylpyrazine-2-carboxamide] |  |  | 
> 500 nM | > 1 nM | < 1 nM | > 1 nM | 1 to 10 nM |  |  |  | CCc1nc(C(N)=O)c(Nc2cccc(CCNC(=O)[C@@H](C)N(C)C(=O)/C=C/CN(C)C)c2)nc1N(C)C(C)C [Compound 302, (R,E)-3-((3-(2-(2-(4-(dimethylamino)-N-methylbut-2-enamido)propanamido)ethyl)phenyl)amino)-6-ethyl-5-(isopropyl (methyl)amino) pyrazine-2-carboxamide] |  |  | 
> 500 nM | 0.201 to 0.5 nM | < 1 nM | 0.501 to 1 nM | < 1 nM |  |  |  | CCc1nc(C(N)=O)c(Nc2cccc(CCNC(=O)[C@H](C)N(C)C(=O)/C=C/CN(C)C)c2)nc1N(C)C [Compound 137, (S,E)-5-(dimethylamino)-3-((3-(2-(2-(4-(dimethylamino)-N-methylbut-2-enamido)propanamido)ethyl)phenyl)amino)-6-ethylpyrazine-2-carboxamide] |  |  | 
> 500 nM | 0.101 to 0.2 nM | < 1 nM | 0.101 to 0.2 nM | < 1 nM |  |  |  | CCc1nc(C(N)=O)c(Nc2cc(CCNC(=O)[C@H](C)N(C)C(=O)/C=C/CN(C)C)cc(OC)c2)nc1N(C)C [Compound 143] |  |  | 
> 500 nM | 0.201 to 0.5 nM | < 1 nM | 0.501 to 1 nM | 1 to 10 nM |  |  |  | CCc1nc(C(N)=O)c(Nc2cccc(CCNC(=O)[C@H](C)N(C)C(=O)C#CCN(C)C)c2)nc1N(C)C [Compound 203, (S)-5-(dimethylamino)-3-((3-(2-(2-(4-(dimethylamino)-N-methylbut-2-ynamido)propanamido)ethyl)phenyl)amino)-6-ethylpyrazine-2-carboxamide] |  |  | 
> 500 nM | 0.101 to 0.2 nM | < 1 nM | 0.501 to 1 nM | 1 to 10 nM |  |  |  | C=CC(=O)N(C)CC(=O)NCCc1cc(Nc2nc(N(C)CC)c(CC)nc2C(N)=O)ccn1 [Compound 515, 6-ethyl-5-(ethyl(methyl)amino)-3-((2-(2-(2-(N-methylacrylamido)acetamido)ethyl)pyridin-4-yl)amino) pyrazine-2-carboxamide] |  |  | 
> 500 nM | 0.101 to 0.2 nM | 1 to 10 nM | 0.201 to 0.5 nM | 1 to 10 nM |  |  |  | C=CC(=O)N(C)CC(=O)NCCc1cccc(Nc2nc(N(C)C(C)C)c(CC)nc2C(N)=O)c1 [Compound 308, 6-ethyl-5-(isopropyl(methyl)amino)-3-((3-(2-(2-(N-methylacrylamido)acetamido)ethyl)phenyl)amino)pyrazine-2-carboxamide] |  |  | 
> 500 nM | 0.201 to 0.5 nM | 10 to 100 nM | 0.501 to 1 nM | 1 to 10 nM |  |  |  | C=CC(=O)N(C)CC(=O)NC[C@H](C)c1cccc(Nc2nc(N(C)CC)c(CC)nc2C(N)=O)c1 [Compound 513, (R)-6-ethyl-5-(ethyl (methyl)amino)-3-((3-(1-(2-(N-methylacrylamido)acetamido)propan-2-yl)phenyl)amino) pyrazine-2-carboxamide] |  |  | 
> 500 nM | 0.201 to 0.5 nM | < 1 nM | 0.201 to 0.5 nM | 1 to 10 nM |  |  |  | CCc1nc(C(N)=O)c(Nc2cccc(CCNC(=O)[C@H](C)N(C)C(=O)/C=C/CN(C)C)c2)nc1C1CC1 [Compound 138, (S,E)-5-cyclopropyl-3-((3-(2-(2-(4-(dimethylamino)-N-methylbut-2-enamido)propanamido)ethyl)phenyl)amino)-6-ethylpyrazine-2-carboxamide] |  |  | 
> 500 nM | > 1 nM | > 500 nM | > 1 nM | > 500 nM | > 100 nM | > 100 nM | > 100 nM | C=CC(=O)Nc1cccc(Nc2nc(N3CCC[C@H](NC(=O)c4ccc(C5CC5)cc4)[C@@H]3C)cnc2C(N)=O)c1 [Compound C-1, reference compound] | 0% | 9.7% | 0%
> 500 nM | 0.101 to 0.2 nM | < 1 nM | 0.501 to 1 nM | < 1 nM |  |  |  | CCc1nc(C(N)=O)c(Nc2cccc(CCNC(=O)[C@H](C)N(C)C(=O)/C=C/CN(C)C)c2)nc1N(C)CC [Compound 221, (S,E)-3-((3-(2-(2-(4-(dimethylamino)-N-methylbut-2-enamido)propanamido)ethyl)phenyl)amino)-6-ethyl-5-(ethyl(methyl)amino)pyrazine-2-carboxamide] |  |  | 
 | > 1 nM | 1 to 10 nM | 0.501 to 1 nM | 1 to 10 nM |  |  |  | CCc1nc(C(N)=O)c(Nc2cncc(CCNC(=O)[C@H](C)N(C)C(=O)/C=C/CN(C)C)c2)nc1C1CC1 [Compound 306, (S, E)-5-cyclopropyl-3-((5-(2-(2-(4-(dimethylamino)-N-methylbut-2-enamido)propanamido)ethyl)pyridin-3-yl)amino)-6-ethylpyrazine-2-carboxamide] |  |  | 
